From US8829167B2, “Foliamangiferosides, preparation method and use thereof” (Tianjin University of Traditional Chinese Medicine, priority 2009, dated 2014)

Biological target: T1, α-glucosidase derived from rat intestines (Rattus norvegicus, UniProt P23739)
T1 construct: The brush border membrane is scraped; from tissue; host or cells: Wistar male rat jejunum, brush border membrane (crude preparation)
Test: α-glucosidase inhibiting activity (sucrose hydrolysis by rat intestinal brush border crude enzyme, glucose assay kit)
Assay type: biochemical
Details: for inhibition of the conversion of sucrose into glucose under the catalysis of α-glucosidase in intestines (in words): in vitro; for Inhibition ratio: sucrose substrate, 37° C., 30 min
Procedure: The research process of α-glucosidase inhibiting activity: A Wistar male rat (body weight: about 200 g) is sacrificed by decapitation. The jejunum is taken out. The brush border membrane is scraped and then mixed into 0.1 M maleic acid buffer solution (pH 6.0). The mixture is used as α-glucosidase crude enzyme. 50 uL of sample solution dissolved in 2.5% DMSO is added into 100 uL of […] sucrosebase solution, into which 50 uL of the α-glucosidase solution derived from rat intestines is added. The mixture is reacted for 30 minutes at 37° C. before adding 800 uL of water and placing into boiling water bath for 2 minutes to be inactivated. The amount of the glucose produced is assayed with glucose assay kits.
Preparation of Sample Solution Group
0.1 M of maleic acid aqueous solution is mixed with 0.1 M of sodium maleate aqueous solution. The mixture is adjusted to pH 6.0 and is used as 0.1 M of maleic acid buffer solution. A sample is dissolved into DMSO solution and diluted 10 times with 0.1 M of maleic acid buffer solution. A sample solution is obtained and ready to use.
Sample group: The group in which a sample is added according to the experimental procedure described above (the samples are foliamangiferoside A (obtained in example 1) and foliamangiferoside B (obtained in example 2)); Control group: The group in which 2.5% DMSO solution is added according to the experimental procedure described above; Blank group: The type and amount of the agents are the same with those in sample group except that 800 uL of water is added immediately after 50 uL of the α-glucosidase solution derived from rat intestines is added, then the mixture is placed into a boiling water bath for 2 minutes to conduct inactivation. Furthermore, the similar experiments are conducted with ethanolic extracts of mango leaves (the product obtained in step 1 of example 1).
The following equation is used to calculate the inhibition ratio (%): inhibition ratio (%)=(A−B)/(A−C)*100
wherein, A is the absorbance of control group, B is the absorbance of sample group and C is the absorbance of blank group.

T1 sequence (P23739 whole entry): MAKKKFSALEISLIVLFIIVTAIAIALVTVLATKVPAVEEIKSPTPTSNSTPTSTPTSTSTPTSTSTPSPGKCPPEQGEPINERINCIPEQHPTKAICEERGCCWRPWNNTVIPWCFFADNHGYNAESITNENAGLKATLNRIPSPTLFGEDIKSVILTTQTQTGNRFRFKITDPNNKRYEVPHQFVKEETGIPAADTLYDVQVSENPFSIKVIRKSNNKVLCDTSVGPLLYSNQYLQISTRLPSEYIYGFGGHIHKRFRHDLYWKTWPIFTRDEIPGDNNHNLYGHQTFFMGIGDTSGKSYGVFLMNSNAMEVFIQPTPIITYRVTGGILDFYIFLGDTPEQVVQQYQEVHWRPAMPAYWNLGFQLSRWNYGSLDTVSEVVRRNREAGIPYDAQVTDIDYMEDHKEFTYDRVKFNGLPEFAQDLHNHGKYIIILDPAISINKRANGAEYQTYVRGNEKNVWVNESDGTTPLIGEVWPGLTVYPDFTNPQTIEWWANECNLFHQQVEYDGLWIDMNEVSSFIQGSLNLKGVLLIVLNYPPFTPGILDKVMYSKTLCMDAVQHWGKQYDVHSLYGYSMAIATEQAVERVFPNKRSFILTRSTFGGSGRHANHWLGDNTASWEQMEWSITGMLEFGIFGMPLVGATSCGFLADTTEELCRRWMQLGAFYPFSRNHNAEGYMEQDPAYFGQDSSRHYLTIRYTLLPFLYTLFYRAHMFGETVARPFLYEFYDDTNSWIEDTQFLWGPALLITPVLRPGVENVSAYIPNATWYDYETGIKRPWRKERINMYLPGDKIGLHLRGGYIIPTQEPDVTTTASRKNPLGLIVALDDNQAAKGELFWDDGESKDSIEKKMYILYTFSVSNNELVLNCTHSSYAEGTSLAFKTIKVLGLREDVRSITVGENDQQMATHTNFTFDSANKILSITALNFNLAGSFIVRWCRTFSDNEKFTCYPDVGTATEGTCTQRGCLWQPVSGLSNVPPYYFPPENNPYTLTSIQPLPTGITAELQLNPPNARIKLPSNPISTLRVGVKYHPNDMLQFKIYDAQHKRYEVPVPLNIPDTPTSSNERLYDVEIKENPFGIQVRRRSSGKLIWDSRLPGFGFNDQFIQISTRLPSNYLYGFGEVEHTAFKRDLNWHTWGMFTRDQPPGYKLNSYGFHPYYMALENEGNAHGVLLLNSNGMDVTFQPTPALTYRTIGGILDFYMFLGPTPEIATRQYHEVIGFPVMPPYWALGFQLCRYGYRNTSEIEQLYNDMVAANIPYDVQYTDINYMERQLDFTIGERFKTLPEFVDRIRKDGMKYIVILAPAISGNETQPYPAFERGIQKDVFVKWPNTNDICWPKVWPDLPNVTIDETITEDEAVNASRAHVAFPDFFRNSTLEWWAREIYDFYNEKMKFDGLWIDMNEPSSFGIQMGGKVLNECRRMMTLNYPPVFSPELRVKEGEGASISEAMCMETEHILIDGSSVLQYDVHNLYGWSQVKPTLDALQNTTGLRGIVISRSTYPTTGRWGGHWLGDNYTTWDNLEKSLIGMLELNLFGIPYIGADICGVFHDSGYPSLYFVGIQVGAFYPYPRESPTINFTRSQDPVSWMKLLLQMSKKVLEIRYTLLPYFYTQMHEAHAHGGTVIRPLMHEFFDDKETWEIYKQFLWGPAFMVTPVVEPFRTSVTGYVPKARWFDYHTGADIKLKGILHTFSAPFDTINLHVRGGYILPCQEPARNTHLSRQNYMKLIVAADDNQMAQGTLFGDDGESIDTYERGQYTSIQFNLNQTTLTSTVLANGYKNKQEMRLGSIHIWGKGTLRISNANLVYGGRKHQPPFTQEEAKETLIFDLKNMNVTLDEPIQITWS

Compound | inhibition of the conversion of sucrose into glucose under the catalysis of α-glucosidase in intestines (in words) | Sample group Conc. of glucose hydrolyzed (sample 50 uM) [mg/dL] | Inhibition ratio (sample 50 uM) [%] | Sample group Conc. of glucose hydrolyzed (sample 100 uM) [mg/dL] | Inhibition ratio (sample 100 uM) [%] | Sample group Conc. of glucose hydrolyzed (sample 200 uM) [mg/dL] | Inhibition ratio (sample 200 uM) [%] | Sample group Conc. of glucose hydrolyzed (sample 400 uM) [mg/dL] | Inhibition ratio (sample 400 uM) [%] | Inhibition ratio (sample 400 uM, listed as foliamangiferoside B) [%] | Inhibition ratio (sample 400 uM, listed as foliamangiferoside A) [%]
COc1cc(C(=O)c2c(O)cc(OC)c([C@@H]3OC(CO)[C@@H](O)C(O)C3O)c2O)ccc1O (some centres unmarked) [Foliamangiferoside B, foliamangiferoside B] | can effectively inhibit | 5.23 | 19.6 | 4.64 | 23.9 | 4.12 | 29.6 | 3.71 | 45.6 | 45.6 | –
COc1cc(O)c(C(=O)c2ccc(O)cc2)c(O)c1[C@@H]1O[C@H](CO)[C@@H](O)[C@H](O)[C@H]1O [Foliamangiferoside A, foliamangiferoside A] | can effectively inhibit | 5.23 | 15.8 | 4.64 | 20.2 | 4.12 | 26.2 | 3.09 | 58.2 | – | 58.2
